Literature values in US20220347117A1 (priority 2021, published 2022).

C=CCN1CC[C@]23c4c5ccc(O)c4O[C@H]2C(=O)CC[C@@]3(O)[C@H]1C5 [naloxone]
pKa: about 7.94
